{"source": "patent EP3594336A1", "about": "“TREATMENT OF DOWN SYNDROME” (Université de Strasbourg, priority 2018, dated 2020)", "key": {"[1]": {"test_system": "DYRK1A", "details": "treatment with EGCG, as reported previously; cited from earlier work"}, "[2]": {"test_system": "yeast cells overexpressing Cys4", "experiment": "Drug screening in yeast: suppression of methionine auxotrophy (halo of restored growth around filter)", "type": "cell-based, Saccharomyces cerevisiae", "details": "same plate assay; high concentrations = close to the filter", "protocol": "As an example, for the drug screening, yeast cells transformed with p424-GPD and p426-GPD plasmids containing yeast CBS (CYS4) coding sequence were grown in uracil- and tryptophan-free minimal liquid medium (SD-Ura/Trp) overnight at 29°C. The following day, cells were diluted to OD600∼0.2 in fresh medium and grown for 4 hours to reach exponential phase. Then three hundred and fifty microliters of exponentially growing yeast cells overexpressing CYS4, adjusted to an OD600 of 0.5, were spread homogeneously with sterile glass beads (a mix of ∼1.5 and 3 mm diameter) on a square Petri dish (12 cm × 12cm) containing uracil-, tryptophan- and methionine-free minimal agar-based solid medium (SD-UrarTrp/Met). In addition, to get a degree of methionine auxotrophy sufficient to allow an efficient screening, the screening medium was supplemented with serine (2% (w/v)), which is one of CYS4/CBS substrates. Sterile filters (Thermo Fisher similar to those used for antibiograms) were placed on the agar surface, and 2 µl of individual compound from the various chemical libraries were applied to each filter. […]\nAccording to the present invention, it was decided to create a yeast model in which the phenotypical consequences of CBS overexpression may be easily and conveniently monitored in order to get a potential in cellulo high throughput drug screening procedure. […]"}}}
{"smiles": "O=C(O[C@@H]1Cc2c(O)cc(O)cc2O[C@@H]1c1cc(O)c(O)c(O)c1)c1cc(O)c(O)c(O)c1", "note": "[epigallocatechin-3-gallate]", "values": [{"measurement": "cognitive aspects found altered in people with DS", "setting": "[1]", "value": "can restore some cognitive aspects found altered in people with DS but the gain was limited"}]}
{"smiles": "CCN(CC)C(=S)SSC(=S)N(CC)CC", "note": "[DSF, Disulfiram]", "values": [{"measurement": "toxicity on CYS4-overexpressing cells", "setting": "[2]", "value": "toxic at high concentrations"}]}
